# Patent publication EP4699605A1, “USE OF NOVEL COMPOUND FOR TREATING INTRACTABLE DISEASES” (YJ Cerapeutics Inc., priority 2023, dated 2024)
# What was measured:
# [1] = tested on: nerve injury animal models (SCI, LSS, SNI); assay: Mechanical allodynia (von-Frey filaments, 50% paw withdrawal threshold) in nerve injury animal models; format: in vivo, Sprague-Dawley rats; conditions: intraperitoneal 5 mg/kg; at 1 hour after administration
# Description: To be used as a central nerve injury animal model, a traumatic spinal cord injury (SCI) model was prepared (FIG. 1A). Specifically, 230 to 250 g of male adult Sprague-Dawley rats were anesthetized by intraperitoneal injection of chloral hydrate (500 mg/kg), and then the back and neck regions were shaved, and the spinal cord under the back and neck regions was exposed without damaging the dura mater, and a laminectomy was performed at T9 to T10 levels. To stabilize the spine, the spinous processes of T8 and T11 were fixed, and the spine was damaged by free-falling a 10 g weight from a height of 25 mm using an NYU impactor onto the back surface of the exposed spinal cord and then the rats were left in a temperature and humidity-controlled chamber overnight while covering the muscles and skin. After surgery, the rats were subcutaneously injected with a supplement solution (5 ml, lactated ringer) and injected with antibiotics (gentamicin, 5 mg/kg, intramuscular injection) once daily for 5 days. The body weight, remaining food, and the weight of water were confirmed and recorded for all animals, and the bladder was emptied twice daily by passive bladder massage until reflex micturition was established. At this time, a Sham group was a group that was subjected to only laminectomy without damage.
# To be used as a peripheral nerve injury animal model, a lumbar spinal stenosis (LSS) model was prepared (FIG. 1B). Specifically, 260 to 280 g of adult male Sprague-Dawley rats were anesthetized with intraperitoneal injection of chloral hydrate (500 mg/kg), the back region was shaved, and then the spinal plate was exposed at L4 to S2 levels. After removing the ligamentous section between L4 and L5, a trapezoidal silicone block (1.00 mm long × 1.3 to 1.2 mm wide × 1.0 mm high) was inserted into the epidural space below the L5 and L6 spinal plates without damaging the dural sac. At this time, a Sham group was a group that was subjected to only posterior […] on the animal without inserting a silicone block.
# To be used as a peripheral nerve injury animal model, a sciatic nerve injury (SNI) model was prepared (FIG. 1C). Specifically, 200 to 220 g of male adult Sprague-Dawley rats were anesthetized by intraperitoneal injection of chloral hydrate (500 mg/kg), and then three terminal branches (tibial, common peroneal, and sural nerves) of the right sciatic nerve were approached, and the tibia nerve and the peroneal nerve were tightly ligated with 4-0 silk, and neurectomy was performed at a distal 3 mm position of the ligation site. At this time, a Sham group was a group that exposed only the sciatic nerve without damage.
# In order to confirm a neuropathic pain inhibitory effect of YJ102 (Chemical Formula 1), a compound of the present disclosure, in the three nerve injury animal models prepared in Example 1 above, rats having pain on week 3 (SNI model) or week 4 (SCI model and LSS model) after surgery were selected and administered orally (p.o.) at 10 mg/kg or 20 mg/kg of YJ102 dissolved in a solution of DMSO, methyl pyrrolidinone, and water (1 : 1.5 : 1), or intraperitoneally injected (i.p. injection) at 1, 2, or 5 mg/kg of YJ102. In a positive control group, gabapentin or pregabalin dissolved in saline was intraperitoneally injected at a concentration of 5 mg/kg, and in a Vehicle group, the same amount of a solution of DMSO, methyl pyrrolidinone, and water was administered. Thereafter, in order to measure mechanical allodynia, the rats were located at the bottom of a transparent plastic box (10 cm × 10 cm) on top of a wire mesh (3 mm × 3 mm) and subjected to an adaptation period for approximately 20 minutes. Von-Frey filaments were applied to the soles of both paws and used with stiff nylon von-Frey monofilament series ([…], Stoelting, WoodDale, IL, USA; equivalent in grams to 0.4, 0.6, 1.0, 2.0, 4.0, 6.0, 8.0 and 15.0) with logarithmic increases in tactile (mechanical) sensitivity. […]
# [2] = Observation of sedation as a side effect at high doses; format: in vivo, rats
SMILES,analgesic effect (mechanical allodynia) [1],sedation as a side effect ([2]; 20 mg/kg),sedation as a side effect ([2]; 50 mg/kg)
"CC(C)C[C@H](CN)CC(=O)O [pregabalin, reference compound]",significant analgesic effect,observed,
"NCC1(CC(=O)O)CCCCC1 [gabapentin, reference compound]",significant analgesic effect,,observed
